In brackets after ≈: the same amount, converted by molar mass.
System: Escherichia coli
Test: Antibacterial activity against Escherichia coli HS294 after 18 hrs by microtitre plate method
Format: functional

Compound C[C@H]1CCCC[C@H]2C(=O)C=C[C@H](O)[C@@H]2CC(=O)O1 has an MIC of 40 µg/mL (≈ 159 µM).

Source: ChEMBL document CHEMBL1147255, “Isolation and structure elucidation of Sch 642305, a novel bacterial DNA primase inhibitor produced by Penicillium verrucosum” (J Nat Prod, 2003)
